Data from patent US20230165868A1, “PARAXANTHINE-BASED COMPOSITIONS FOR ENHANCING MUSCLE FUNCTION, NITRIC OXIDE SIGNALING, AND/OR MUSCLE GLYCOGEN LEVELS” (Ingenious Ingredients, LP, priority 2021, published 2023).

Tests used:
[1] = Body weight during 28-day oral supplementation; type: in vivo, Swiss Albino mice; conditions: mean ± SD, n = 8 mice
Experimental: (§1) Forty 8-week-old male Swiss Albino mice were housed in an animal room at a constant temperature (22±3° C.) and humidity (30%-70%) under a 12:12 h light-dark cycle with standard laboratory diet (Purina 5L79, Rat and Mouse 18% protein; PMI Nutrition International, Brentwood, Mo., USA). Distilled water was provided ad libitum. All animal experiments were reviewed and approved by the Institutional Animal Ethical Committee (IAEC) of Radiant Research Services Pvt. Ltd (Bangalore, India). All research was conducted in accordance with the guidelines of the committee for the purpose of control and supervision of experiments on animals (CPCSEA Registration Number-1803/PO/RcBi/S/2015/CPCSEA).
(§2) After one week of acclimation, the animals were randomly divided by body weight into five groups (n=8 per group in each test) for oral treatment once a day, at approximately same time each day (±1 hour), for 28 consecutive days: (1) vehicle control; (2) paraxanthine (3) L-theanine; (4) alpha-GPC; and (5) taurine. The dose administered to the mice was calculated using US Food and Drug Administration for human equivalence doses (HED), assuming a human weight of 60 kg. The following HED were used in this study: 100 mg paraxanthine, (ENFINITY™, Ingenious Ingredients, L.P Lewisville, Tex., USA; mouse dose: 20.5 mg/kg bw/day); 200 mg alpha-GPC mg (YangLing Daily Health Bio-Engineering Technology Co., Ltd; mouse dose: 41.09 mg/kg bw), 50 mg L-theanine (Hangzhou Qinyuan Natural Plant High-tech Co., Ltd; mouse dose: 10.28 mg/kg bw), and 500 mg taurine (Jiangyin Huachang Food Additive Co., Ltd; mouse dose: 102.75 mg/kg bw). 0.5% Carboxy Methyl Cellulose sodium was used as vehicle and the test item formulations were prepared daily. Dosing was conducted via oral gavage using disposable polypropylene syringes with sterilized stainless steel gavage tubes. The food intake and water consumption were monitored daily, and BW was recorded weekly. The last dose on day 28 was given 1 hour prior to testing.

Nitric oxide = assay: Serum nitric oxide ELISA; type: in vivo, Swiss Albino mice; conditions: serum after 28 days of treatment; for Nitric Oxide: mean ± SD, n = 8; for increase in nitric oxide levels over control: vs vehicle control
Experimental: (§3) After one week of acclimation, the animals were randomly divided by body weight into five groups (n=8 per group in each test) for oral treatment once a day, at approximately same time each day (±1 hour), for 28 consecutive days: (1) vehicle control; (2) paraxanthine (3) L-theanine; […] The dose administered to the mice was calculated using US Food and Drug Administration for human equivalence doses (HED), assuming a human weight of 60 kg. […] Dosing was conducted via oral gavage using disposable polypropylene syringes with sterilized stainless steel gavage tubes. The food intake and water consumption were monitored daily, and BW was recorded weekly. The last dose on day 28 was given 1 hour prior to testing. All animals were euthanized by 95% CO2 after 28 days of following their assigned treatment. Blood was collected immediately after euthanization by the retro-orbital route and was immediately centrifuged at 1500×g for 10 min at 4° C. before having all serum transferred into cryogenic tubes and stored at -80° C. The liver, heart, gastrocnemius and soleus were excised and weighed. Collected serum was analyzed for clinical biochemical variables including aspartate aminotransaminase (AST), alanine aminotransaminase (ALT), alkaline phosphatase (ALP), uric acid (UA), creatinine, total cholesterol (TC), triglycerides (TG), high-density lipoproteins (HDL), and low-density lipoproteins (LDL) were measured using an auto analyzer (EM360, ERBA Diagnostics Mannheim GmbH, Mannheim, Germany). Nitric oxide was analyzed using standard ELISA assay kits (Lot No: E-BC-[…], Elabscience, Houston, Tex., USA).

[2] = Feed consumption during 28-day oral supplementation; type: in vivo, Swiss Albino mice; conditions: mean ± SD, n = 8 mice
Experimental: as §1, §2

male Swiss Albino mice [3] = assay: Treadmill endurance test; type: in vivo; conditions: for Distance traveled on treadmill / increase in distance traveled during treadmill exercise compared to control: after 28 days of supplementation; for Distance traveled on treadmill: run until exhaustion, n=8; for Distance traveled on treadmill / Baseline treadmill performance (distance): mean ± SD; for increase in distance traveled during treadmill exercise compared to control: vs vehicle control
Experimental: (2) paraxanthine (3) L-theanine; […] The dose administered to the mice was calculated using US Food and Drug Administration for human equivalence doses (HED), assuming a human weight of 60 kg. […] Dosing was conducted via oral gavage using disposable polypropylene syringes with sterilized stainless steel gavage tubes. The food intake and water consumption were monitored daily, and BW was recorded weekly. The last dose on day 28 was given 1 hour prior to testing. […] All animals were adapted to this procedure daily 60 minutes after dosing for five days in a week during the treatment period. On 28th day of each respective treatment, all animals were subjected to a muscle endurance test. […] Animals were subjected to the treadmill test until exhaustion. Distance traveled (cm) was measured as a marker of exercise performance.

male Swiss Albino mice [4] = assay: Muscle weight (gastrocnemius, soleus) after 28 days; type: in vivo; conditions: after 28 days of supplementation; vs vehicle control
Experimental: (§4) (2) paraxanthine (3) L-theanine; […] The dose administered to the mice was calculated using US Food and Drug Administration for human equivalence doses (HED), assuming a human weight of 60 kg. […] Dosing was conducted via oral gavage using disposable polypropylene syringes with sterilized stainless steel gavage tubes. The food intake and water consumption were monitored daily, and BW was recorded weekly. The last dose on day 28 was given 1 hour prior to testing. All animals were euthanized by 95% CO2 after 28 days of following their assigned treatment. Blood was collected immediately after euthanization by the retro-orbital route and was immediately centrifuged at 1500×g for 10 min at 4° C. before having all serum transferred into cryogenic tubes and stored at -80° C. The liver, heart, gastrocnemius and soleus were excised and weighed.

[5] = Liver and heart mass / gross pathology; type: in vivo, Swiss Albino mice; conditions: after 28 days of treatment; mean ± SD, n = 8
Experimental: as §4

male Swiss Albino mice [6] = assay: Forelimb grip strength test; type: in vivo; conditions: for Baseline forelimb grip strength: day 0 baseline, time holding steel bar, mean of three trials; for increase in forelimb grip strength compared to control: day 28, one hour after oral treatment, vs vehicle control
Experimental: After one week of acclimation, the animals were randomly divided by body weight into five groups (n=8 per group in each test) for oral treatment once a day, at approximately same time each day (±1 hour), for 28 consecutive days: (1) vehicle control; (2) paraxanthine (3) L-theanine; […] The dose administered to the mice was calculated using US Food and Drug Administration for human equivalence doses (HED), assuming a human weight of 60 kg. […] Dosing was conducted via oral gavage using disposable polypropylene syringes with sterilized stainless steel gavage tubes. The food intake and water consumption were monitored daily, and BW was recorded weekly. The last dose on day 28 was given 1 hour prior to testing. The forelimb grip strength was measured on day 0 and day 28 by using a stainless-steel grill to assess muscle strength (Orchid Scientific & Innovative India Pvt Ltd, India). Grip strength was measured one hour after treatment. Briefly, each mouse was placed on a grill chamber and the steel bar is inverted; grip strength is measured by recording the time each animal holds the steel bar. The maximum time for each trial was six minutes. Each animal performed three independent trials separated by six minutes intervals and the mean of the three trials was calculated.

[7] = Clinical biochemical profiles of serum; type: in vivo, Swiss Albino mice; conditions: serum at end of 28-day treatment; mean ± SD, n = 8
Experimental: as §3

| Compound | body weight ([1]; Basal) [grams] | body weight ([1]; Week 1, oral once daily) [grams] | body weight ([1]; Week 2, oral once daily) [grams] | body weight ([1]; Week 3, oral once daily) [grams] | body weight ([1]; Week 4, oral once daily) [grams] | Nitric Oxide (Nitric oxide) [ng/mL] | increase in nitric oxide levels over control (Nitric oxide) [%] | feed consumption ([2]; Week 1) [grams] | feed consumption ([2]; Week 2) [grams] | feed consumption ([2]; Week 3) [grams] | feed consumption ([2]; Week 4) [grams] | Distance traveled on treadmill (male Swiss Albino mice [3]) | increase in distance traveled during treadmill exercise compared to control (male Swiss Albino mice [3]) | Baseline treadmill performance (distance) (male Swiss Albino mice [3]) [cm] | increase in gastrocnemius muscle mass compared to control (male Swiss Albino mice [4]) | increase in soleus muscle mass compared to control (male Swiss Albino mice [4]) | Heart mass [5] [mg] | Liver mass [5] | Baseline forelimb grip strength (male Swiss Albino mice [6]) | increase in forelimb grip strength compared to control (male Swiss Albino mice [6]) [%] | other results |
| --- | --- | --- | --- | --- | --- | --- | --- | --- | --- | --- | --- | --- | --- | --- | --- | --- | --- | --- | --- | --- | --- |
| C[N+](C)(C)CCOP(=O)([O-])OC[C@H](O)CO [Alpha-GPC, L-alpha glycerylphosphorylcholine] | 22.50 ± 0.44 | 24.10 ± 0.40 | 27.05 ± 0.50 | 29.14 ± 0.49 | 31.68 ± 0.44 | 9.21 ± 2.33 | 42 | 40.91 ± 0.55 | 43.34 ± 0.40 | 45.49 ± 0.40 | 47.54 ± 0.42 | 1,695±53.0 centimeters | did not increase treadmill performance | 248.6±42.2 | no effect on muscle mass | no effect on muscle mass | 189 ± 1.0 | 1,869 ± 32 mg | 91.00±0.40 | 8 | ALP [7]: 179.3 ± 3.99 U/L; ALT [7]: 23.63 ± 1.51 U/L; AST [7]: 38.88 ± 2.10 U/L; Creatinine [7]: 0.90 ± 0.16 mg/dL; Urea [7]: 29.38 ± 1.41 mg/dL |
| Cn1c(=O)[nH]c2ncn(C)c2c1=O [Paraxanthine, 1,7-dimethylxanthine] | 22.01 ± 0.40 | 23.86 ± 0.55 | 26.95 ± 0.41 | 29.68 ± 0.45 | 32.80 ± 0.48 | 13.06 ± 0.58 | 101 | 41.73 ± 046 | 43.89 ± 0.68 | 46.00 ± 0.59 | 48.34 ± 0.68 | 2,100±133 centimeters | 39% | 255.3±30.7 | 14% | 41% | 190 ± 1.4 | 1,870 ± 31 mg | 90.60±0.92 | 17 | ALP [7]: 179.4 ± 2.56 U/L; ALT [7]: 23.88 ± 0.99 U/L; AST [7]: 39.50 ± 1.60 U/L; Creatinine [7]: 0.86 ± 0.11 mg/dL; Urea [7]: 29.13 ± 0.99 mg/dL |
| CCNC(=O)CC[C@H](N)C(=O)O [L-Theanine, L-theanine] | 22.41 ± 0.49 | 24.20 ± 0.56 | 26.76 ± 0.71 | 29.00 ± 0.60 | 31.60 ± 0.64 | 10.23 ± 1.26 | 57 | 41.26 ± 0.86 | 43.50 ± 0.66 | 45.30 ± 0.48 | 47.60 ± 0.51 | 1,710±127 centimeters | 13% | 265.4±32.9 | 5% | but not soleus muscle mass | 189 ± 2.3 | 1,866 ± 43 mg | 87.90±2.63 | 12 | ALP [7]: 177.1 ± 3.68 U/L; ALT [7]: 24.25 ± 1.28 U/L; AST [7]: 40.25 ± 2.44 U/L; Creatinine [7]: 0.89 ± 0.11 mg/dL; Urea [7]: 28.75 ± 1.28 mg/dL |
